From patent US9738932B2, “Biomarkers for cardiovascular side-effects induced by cox-2 inhibitory compounds” (FIRALIS SAS, priority 2005, dated 2017)

Tested on: mRNA expression in cardiovascular tissues
Experiment: Affymetrix GeneChip mRNA expression profiling of monkey tissues (iliac vein, pulmonary vein, aorta, carotid artery, heart) after two-week oral-gavage treatment
Conditions: iliac vein
[1] = group average (Vioxx without A60055)

Method: Administration of compounds. A two-week oral-gavage treatment with the Cox-2 specific inhibitor COX189 (Lumiracoxib®, Novartis) in comparison with rofecoxib (Vioxx®, Merck), and celecoxib (Celebrex®, Pharmacia/Pfizer), and with the nonselective NSAID, diclofenac (Voltaren®, Novartis) was performed. […] The test items were administered daily at doses of 100 mg/kg/day, except Vioxx® which was administered at 50 mg/kg/day.
Gene expression profiles. After a period of time (e.g., four weeks) of compound/drug administration, the treated animals are necropsied. 120 tissues are dissected and rapidly snap-frozen for genomics analysis. Organ samples are isolated for histopathological examinations and for gene expression localizations, such as by in situ hybridization.
Gene expression profiles have been generated using the Affymetrix microarray technology. (i) RNA extraction and purification: Briefly, total RNA was obtained by acid guanidinium thiocyanate-phenol-chloroform extraction (Trizol®, Invitrogen Life Technologies, San Diego, Calif.) from each frozen tissue section and the total RNA was then purified on an affinity resin (Rneasy®, Qiagen) according to the manufacturer's instructions. Total RNA was quantified by the absorbance at λ=260 nm (A260 nm) and the purity was estimated by the ratio A260 nm/A280 nm. Integrity of the RNA molecules was confirmed by non-denaturing agarose gel electrophoresis. RNA was stored at −80° C. until analysis. […] (ii) GeneChip® experiment: All GeneChip® experiments were conducted in the Genomics Factory EU following recommendations by the manufacturer of the GeneChip® system (Affymetrix, Expression Analysis Technical Manual (Affymetrix, Santa Clara, Calif., 2005). Human U133A genome arrays were used for transcript expression analysis. Double stranded cDNA was synthesized with a starting amount of approximately 5 μg full-length total RNA using the Superscript Choice System (Invitrogen Life Technologies) in the presence of a T7-(dT) 24 DNA oligonucleotide primer. Following synthesis, the cDNA was purified by phenol/chloroform/isoamyl alcohol extraction and ethanol precipitation. The purified cDNA was then transcribed in vitro using the BioArray® High Yield RNA Transcript Labeling Kit (ENZO) in the presence of biotinylated ribonucleotides form biotin labelled cRNA. The labelled cRNA was then purified on an affinity resin (Rneasy, Qiagen), quantified and fragmented. An amount of approximately 10 μg labelled cRNA was hybridized for approximately 16 hours at 45° C. to an expression probe array. The array was then washed and stained twice with streptavidin-phycoerythrin (Molecular Probes) using the GeneChip Fluidics Workstation 400 (Affymetrix). The array was then scanned twice using a confocal laser scanner (GeneArray Scanner®, Agilent) resulting in one scanned image. This resulting “.dat-file” was processed using the MASS program (Affymetrix) into a “.cel-file”. The “.cel file” was then transferred to tan Affymetrix GeneChip Laboratory Information Management System (LIMS) database, which is connected to a UNIX Sun Solaris server through a network filing system that allows for the average intensities for all probes cells (CEL file) to be downloaded into an Oracle database (NPGN). Raw data was converted to expression levels using a “target intensity” of 100. […] The data were checked for quality and loaded in the GeneSpring® software versions 5.0 (Silicon Genetics, Calif., US) for statistical analysis.
Quality control analysis of transcriptome data: The following quality measures were analysed for each sample: Scaling factor, background, percent present calls, AFFX-GAPDH 3′: AFFX-GAPDH 5′-ratio, AFFX-GAPDH 3′ variance, AFFX-Beta-actin 3′: AFFX-Beta-actin 5′-ratio.

CS(=O)(=O)c1ccc(C2=C(c3ccccc3)C(=O)OC2)cc1 [Vioxx®, rofecoxib]
HFE (211329_x_at) fold change vs control (animal A60055): 1.8 fold
HFE (211332_x_at) fold change vs control (animal A60055): 1.6 fold
HFE (211863_x_at) fold change vs control (animal A60055): 1.8 fold
HFE (211866_x_at) fold change vs control (animal A60055): 1.6 fold
HHL (203020_at) fold change vs control (animal A60055): 2.2 fold
HLA-A (211528_x_at) fold change vs control (animal A60055): 2.4 fold
HLA-A (211529_x_at) fold change vs control (animal A60055): 2.1 fold
HLA-A (211530_x_at) fold change vs control (animal A60055): 2.3 fold
HLA-A (215313_x_at) fold change vs control (animal A60055): 1.8 fold
HLA-B (208729_x_at) fold change vs control (animal A60055): 1.8 fold
HLA-B (209140_x_at) fold change vs control (animal A60055): 1.9 fold
HLA-B (211911_x_at) fold change vs control (animal A60055): 1.8 fold
HLA-C (208812_x_at) fold change vs control (animal A60055): 1.8 fold
HLA-C (214459_x_at) fold change vs control (animal A60055): 2.4 fold
HLA-C (216526_x_at) fold change vs control (animal A60055): 2.0 fold
HLA-DMA (217478_s_at) fold change vs control (animal A60055): 2.9 fold
HLA-DMB (203932_at) fold change vs control (animal A60055): 1.5 fold
HLA-DQA1 (212671_s_at) fold change vs control (animal A60055): 8.2 fold
HLA-DQB1 (209823_x_at) fold change vs control (animal A60055): 4.3 fold
HLA-DQB1 (211654_x_at) fold change vs control (animal A60055): 7.7 fold
HLA-DQB1 (211656_x_at) fold change vs control (animal A60055): 4.1 fold
HLA-DQB2 (212998_x_at) fold change vs control (animal A60055): 10.8 fold
HLA-DRA (208894_at) fold change vs control (animal A60055): 2.3 fold
HLA-DRA (210982_s_at) fold change vs control (animal A60055): 2.1 fold
HLA-DRB1 (215193_x_at) fold change vs control (animal A60055): 2.9 fold
HLA-DRB3 (209312_x_at) fold change vs control (animal A60055): 1.9 fold
HLA-DRB6 (217362_x_at) fold change vs control (animal A60055): 2.2 fold
HLA-E (200905_x_at) fold change vs control (animal A60055): 1.6 fold
HLA-E (217456_x_at) fold change vs control (animal A60055): 1.8 fold
HLA-F (204806_x_at) fold change vs control (animal A60055): 2.1 fold
HLA-F (221875_x_at) fold change vs control (animal A60055): 2.3 fold
ICAM1 (202638_s_at) fold change vs control (animal A60055): 1.6 fold
ICAM1 (215485_s_at) fold change vs control (animal A60055): 2.1 fold
ICSBP1 (204057_at) fold change vs control (animal A60055): 2.2 fold
IFI27 (202411_at) fold change vs control (animal A60055): 20.8 fold
IFI30 (201422_at) fold change vs control (animal A60055): 2.1 fold
IFI44 (214453_s_at) fold change vs control (animal A60055): 8.2 fold
IFIT1 (203153_at) fold change vs control (animal A60055): 5.0 fold
IFIT2 (217502_at) fold change vs control (animal A60055): 4.7 fold
IFIT4 (204747_at) fold change vs control (animal A60055): 1.6 fold
IFITM2 (201315_x_at) fold change vs control (animal A60055): 1.9 fold
IFITM3 (212203_x_at) fold change vs control (animal A60055): 1.6 fold
IGF1 (209541_at) fold change vs control (animal A60055): 1.8 fold
IGFBP4 (201508_at) fold change vs control (animal A60055): 1.7 fold
IL1A (208200_at) fold change vs control (animal A60055): 2.2 fold
IL2RG (204116_at) fold change vs control (animal A60055): 2.4 fold
IL27RA (205926_at) fold change vs control (animal A60055): 2.2 fold
INDO (210029_at) fold change vs control (animal A60055): 6.5 fold
INPP5D (203332_s_at) fold change vs control (animal A60055): 1.7 fold
IRF1 (202531_at) fold change vs control (animal A60055): 3.9 fold
IRF7 (208436_s_at) fold change vs control (animal A60055): 3.4 fold
ISGF3G (203882_at) fold change vs control (animal A60055): 3.1 fold
ITGB2 (202803_s_at) fold change vs control (animal A60055): 1.7 fold
JAK1 (214377_s_at) fold change vs control (animal A60055): 2.1 fold
KLKB1 (206541_at) fold change vs control (animal A60055): 2.2 fold
LAIR1 (208071_s_at) fold change vs control (animal A60055): 3.5 fold
LCK (204890_s_at) fold change vs control (animal A60055): 2.2 fold
LCP2 (205270_s_at) fold change vs control (animal A60055): 1.7 fold
LILRB1 (207857_at) fold change vs control (animal A60055): 2.1 fold
LILRB1 (211100_x_at) fold change vs control (animal A60055): 1.8 fold
LILRB3 (208594_x_at) fold change vs control (animal A60055): 1.7 fold
LILRB3 (210225_x_at) fold change vs control (animal A60055): 2.5 fold
LRMP (204674_at) fold change vs control (animal A60055): 2.6 fold
LY86 (205859_at) fold change vs control (animal A60055): 1.8 fold
LY96 (206584_at) fold change vs control (animal A60055): 1.8 fold
LYN (210754_s_at) fold change vs control (animal A60055): 1.7 fold
MAF (209348_s_at) fold change vs control (animal A60055): 1.7 fold
PCOLCE (202465_at) fold change vs control (animal A60055): 2.2 fold
PLA2G4C (209785_s_at) fold change vs control (animal A60055): 3.3 fold
PLCL2 (216217_at) fold change vs control (animal A60055): 1.7 fold
PLSCR1 (202446_s_at) fold change vs control (animal A60055): 2.1 fold
PRC1 (218009_s_at) fold change vs control (animal A60055): 2.0 fold
PRG1 (201858_s_at) fold change vs control (animal A60055): 1.8 fold
PRG1 (201859_at) fold change vs control (animal A60055): 1.5 fold
PTPN22 (206060_s_at) fold change vs control (animal A60055): 2.5 fold
PTPRC (207238_s_at) fold change vs control (animal A60055): 1.8 fold
SOCS3 (206360_s_at) fold change vs control (animal A60055): 1.8 fold
STAT1 (209969_s_at) fold change vs control (animal A60055): 13.5 fold
STAT1 (AFFX-HUMISGF3A/M97935_5_at) fold change vs control (animal A60055): 4.3 fold
STAT1 (AFFX-HUMISGF3A/M97935_MA_at) fold change vs control (animal A60055): 5.3 fold
STAT1 (AFFX-HUMISGF3A/M97935_MB_at) fold change vs control (animal A60055): 7.1 fold
TAPBP (208829_at) fold change vs control (animal A60055): 1.6 fold
TCTEL1 (201999_s_at) fold change vs control (animal A60055): 1.7 fold
TLR1 (210176_at) fold change vs control (animal A60055): 1.7 fold
TLR2 (204924_at) fold change vs control (animal A60055): 1.7 fold
TNFAIP3 (202643_s_at) fold change vs control (animal A60055): 2.0 fold
TNFAIP3 (202644_s_at) fold change vs control (animal A60055): 2.3 fold
TNFSF6 (210865_at) fold change vs control (animal A60055): 1.9 fold
TNFSF10 (202687_s_at) fold change vs control (animal A60055): 2.9 fold
TNFSF10 (202688_at) fold change vs control (animal A60055): 2.8 fold
TRGC2 (211144_x_at) fold change vs control (animal A60055): 2.0 fold
TRGC2 (216920_s_at) fold change vs control (animal A60055): 2.4 fold
VCAM1 (203868_s_at) fold change vs control (animal A60055): 4.1 fold
XCL1 (206366_x_at) fold change vs control (animal A60055): 4.3 fold
XCL1 (214567_s_at) fold change vs control (animal A60055): 5.4 fold
XLKD1 (219059_s_at) fold change vs control (animal A60055): 1.8 fold
cig5 (213797_at) fold change vs control (animal A60055): 7.1 fold
ACE (209749_s_at) mRNA expression, Avg fold changes vs control [1]: 0.9 fold
B2M (216231_s_at) mRNA expression, Avg fold changes vs control [1]: 1.2 fold
